# In patent US6956030B2, “Use of mometasone furoate for treating upper airway diseases” (Schering Corporation, priority 1994, dated 2005):
# Tests used:
# [1] = tested on: patients with seasonal allergic rhinitis; test: Dose ranging safety and efficacy study, aqueous nasal spray, 4 weeks; type: in vivo; settings: nasal spray 50, 100, 200, 800 mcg/day
# Source text: In treating allergic and non-allergic rhinitis, the aqueous suspension of mometasone furoate may be administered intranasally by inserting an appropriate device (such as the pump spray bottle used to deliver Vancenase AQ® Nasal Spray as well as the spray bottle disclosed in the Schering Corporation Industrial Design Deposit DM/026304 registered Jun. 1, 1993) into each nostril. Active drug is then expelled (nasal spray device) or could be nasally inhaled (sniffed) as a powder. Efficacy is generally assessed in a double blind fashion by a reduction in nasal symptoms (e.g., sneezing, itching, congestion, and discharge). Other objective measurements (e.g., nasal peak flow and resistance) can be used as supportive indices of efficacy.
# In a dose ranging safety and efficacy study, the mometasone furoate aqueous nasal spray formulation at doses of 50 mcg/day, 100 mcg/day, 200 mcg/day, 800 mcg/day or placebo was administered to 480 patients with seasonal allergic rhinitis for 4 weeks.
# [2] = Drug metabolism/clinical pharmacology study: absorption and excretion of total radioactivity after ^3H-MF by various routes; type: in vivo, normal healthy male volunteers
# Method: In addition, a single-dose absorption, excretion and metabolism study using 200 mcg of ^3H-mometasone furoate as the nasal spray formulation was conducted in 6 normal male volunteers. When systemic absorption (based on urinary excretion) was compared to an intravenously administered dose of ^3H-mometasone furoate, it was 8%.
# A drug metabolism and clinical pharmacology study was conducted by administering (by various routes) tritium-labeled mometasone furoate (“^3H-MF”) to 6 groups of 6 normal male volunteers in each group. Blood and urine samples were collected for measurement of total drug (including metabolites).
# The objectives of these studies in male volunteers were to determine the absorption, metabolism and excretion of ^3H-labeled mometasone furoate (“^3H-MF”) following administration by oral swallow as a solution and as an aqueous suspension of the monohydrate, by oral inhalation as a suspension from a standard metered dose inhaler (MDI) and from a metered dose inhaler containing a spacer device (Gentlehaler), by nasal inhalation as an aqueous suspension of the mometasone furoate monohydrate from a nasal spray unit and by intravenous injection as a solution.
# Thirty-six (n=6 per treatment group) normal healthy male volunteers between the ages of 19 and 40 yr. (average 29 yr.) having weights in accordance with current actuarial tables (+10%) were enrolled in these single dose studies. All subjects were determined to be in good health by their medical history, physical examinations, clinical and laboratory tests.
# Plasma, urine, expired air filters, Respirgard and fecal samples were collected and assayed for radioactivity content. The limit of quantitation (LOQ) for plasma radioactivity ranged from 0.103 to 0.138 ng eq/ml., except for the nasal spray treatment where the LOQ was 0.025 ng eq/ml. Selected plasma, urine and fecal samples were analyzed for metabolite profiles.
# Pharmacokinetics—The mean (n=6) plasma concentrations of total radioactivity are illustrated in Summary FIG. 1 and the mean (n=6) pharmacokinetic parameters derived from total plasma radioactivity are presented in Table 2.
# cortisol secretion = test: Multiple dose 28-day study, aqueous nasal spray, cortisol secretion; type: in vivo, normal male volunteers; settings: intranasal 400 or 1600 mcg/day, 28 days
# Source text: In a follow-up multiple dose study, 48 normal male volunteers were empaneled in a randomized, third party-blinded, placebo and active-controlled parallel group study. Twelve volunteers in each of four groups received one of the following treatments for 28 days: A) Intranasal aqueous nasal spray suspension formulation of mometasone furoate monohydrate, 400 mcg/day; B) Intranasal aqueous nasal spray suspension formulation of mometasone furoate monohydrate, 1600 mcg/day; C) Intranasal placebo; D) Oral prednisone, 10 mg/day. All treatments were administered as once daily dosing in the morning.
# plasma cortisol = test: Phase I rising single-dose safety and tolerance study, metered dose inhaler, 24-hour plasma cortisol; type: in vivo, healthy male volunteers
# Method: Several Phase I studies were conducted using mometasone furoate formulated for delivery as a suspension in a pressurized metered dose inhaler (MDI). In a randomized, third-party blinded, placebo-controlled rising single-dose safety and tolerance study, aerosolized mometasone furoate was administered by a metered dose inhaler to eight healthy male volunteers. Doses were administered at 11 p.m. and plasma cortisol concentrations were measured during the following 24-hour period.
structure (smiles),measurement,setting,value
C[C@@H]1C[C@H]2[C@@H]3CCC4=CC(=O)C=C[C@]4(C)[C@@]3(Cl)[C@@H](O)C[C@]2(C)[C@@]1(OC(=O)c1ccco1)C(=O)CCl [mometasone furoate],efficacy relative to placebo,[1],effective relative to placebo
same,tolerability,[1],well tolerated
same,safety and tolerability,"[2]; all dosage forms, single dose",safe and well tolerated
same,bioavailability,"[2]; male, human, plasma, inhaled or intranasal, 200 ug, nasal spray 200 mcg, single dose, read-out: bioavailability of mometasone furoate",< 1%
same,parent drug which reaches the bloodstream from the gastrointestinal tract,[2]; swallowed as oral suspension or by oral or nasal inhalation,less than 1%
same,cortisol secretion compared to placebo,cortisol secretion,Neither of the 2 doses of the mometasone furoate aqueous nasal spray formulation were associated with any changes in cortisol secretion
same,tolerability,cortisol secretion,well tolerated
same,reduction of 24-hour area under the curve plasma cortisol profile (AUC 0-24) compared to placebo,plasma cortisol; single dose 1000 mcg by MDI at 11 p.m.,13%
same,reduction of 24-hour area under the curve plasma cortisol profile (AUC 0-24) compared to placebo,plasma cortisol; single dose 2000 mcg by MDI at 11 p.m.,23%
same,reduction of 24-hour area under the curve plasma cortisol profile (AUC 0-24) compared to placebo,plasma cortisol; single dose 4000 mcg by MDI at 11 p.m.,36%
